How the values were obtained:
[1] = system: healthy subject; experiment: Arcade video game GALAGA, game score; type: in vivo, human; conditions: 300 mg prior to playing GALAGA; one subject
Excerpt: Each of the three game sessions were separated by a one-week washout period. In […], the player mans a lone […] bottom of the screen, which must prevent the […] forces from destroying all of mankind. The objective of each stage is to defeat all of the […] aliens, which will fly into formation from the top and sides of the screen.

[2] = system: healthy men and women playing video games; experiment: Profile of Mood States (POMS) during gaming; type: in vivo, human; conditions: 200 mg daily; for Tension, mean ± SD / Total Mood Disturbance (Tension + Depression + Anger + Fatigue + Confusion − Vigor), Mean ± SD / Vigor, mean ± SD / Tension, Mean of visit / Total Mood Disturbance, Mean of visit / Vigor, Mean of visit: n = 5; for Tension, Mean of visit / Total Mood Disturbance, Mean of visit / Vigor, Mean of visit: mean of 0, 1, 2 h; for Tension, Δ Baseline / Total Mood Disturbance, Δ Baseline / Vigor, Δ Baseline: versus baseline; for Tension, Δ PLA / Total Mood Disturbance, Δ PLA / Vigor, Δ PLA: versus placebo
Method: The effectiveness of study-products (paraxanthine and placebo) was assessed by measuring in-game performance, cognition during gaming (Stroop Test) and mood status during gaming (Profile of Mood States (POMS)). The POMS was completed pre-dose, after 60 minutes of gaming and immediately after completing 120 minutes of video gaming during all study visits. The POMS measured six subscales of mood, including tension-anxiety, depression-dejection, anger-hostility, vigor-activity, fatigue-inertia, and confusion-bewilderment. Subjects were asked to use a 5-point Likert scale (0=not at all, 1=a little, 2=moderately, 3=quite a bit, 4=extremely), to review a list of 65 words (feelings) and rank the degree to which they are experiencing that feeling at the moment. Since high vigor-activity scores reflect good moods or emotions, whereas low scores in the other subscales reflect a good mood or emotion, the total mood disturbance (TMD) score was computed by adding the five negative subscale scores (tension-anxiety, depression-dejection, anger-hostility, fatigue-inertia, and confusion-bewilderment) and subtracting the vigor-activity score. Higher numeric values of the TMD score indicate a greater degree of mood disturbance.

[3] = 3 weeks, listed as paraxanthine
[4] = 6 weeks, listed as paraxanthine

Cn1c(=O)[nH]c2ncn(C)c2c1=O [Paraxanthine, paraxanthine]
average score over 5 games [1]: 118,702 | change of average score compared to placebo [1]: +79.4% | change of personal best compared to placebo [1]: +86.6% | personal best (high score) of the 5 games [1]: 161,070 | Tension, mean ± SD ([2]; 3 weeks, 0 h): 4.0 ± 2.8 | Total Mood Disturbance (Tension + Depression + Anger + Fatigue + Confusion − Vigor), Mean ± SD ([2]; 3 weeks, 0 h): −6.2 ± 16.6 | Vigor, mean ± SD ([2]; 3 weeks, 0 h): 20.4 ± 6.8 | Tension, mean ± SD ([2]; 3 weeks, 1 h): 2.0 ± 1.2 | Total Mood Disturbance (Tension + Depression + Anger + Fatigue + Confusion − Vigor), Mean ± SD ([2]; 3 weeks, 1 h): −6.8 ± 13.3 | Vigor, mean ± SD ([2]; 3 weeks, 1 h): 18.0 ± 10.0 | Tension, mean ± SD ([2]; 3 weeks, 2 h): 2.4 ± 1.3 | Total Mood Disturbance (Tension + Depression + Anger + Fatigue + Confusion − Vigor), Mean ± SD ([2]; 3 weeks, 2 h): −6.4 ± 15.8 | Vigor, mean ± SD ([2]; 3 weeks, 2 h): 16.4 ± 10.0 | Tension, Mean of visit ([2]; 3 weeks): 2.8 | Total Mood Disturbance, Mean of visit ([2]; 3 weeks): −6.5 | Vigor, Mean of visit ([2]; 3 weeks): 18.3 | Tension, mean ± SD ([2]; 6 weeks, 0 h): 2.6 ± 1.8 | Total Mood Disturbance (Tension + Depression + Anger + Fatigue + Confusion − Vigor), Mean ± SD ([2]; 6 weeks, 0 h): −8.2 ± 13.8 | Vigor, mean ± SD ([2]; 6 weeks, 0 h): 18.6 ± 8.6 | Tension, mean ± SD ([2]; 6 weeks, 1 h): 2.0 ± 1.0 | Total Mood Disturbance (Tension + Depression + Anger + Fatigue + Confusion − Vigor), Mean ± SD ([2]; 6 weeks, 1 h): −11.2 ± 12.4 | Vigor, mean ± SD ([2]; 6 weeks, 1 h): 18.2 ± 9.2 | Tension, mean ± SD ([2]; 6 weeks, 2 h): 2.2 ± 1.3 | Total Mood Disturbance (Tension + Depression + Anger + Fatigue + Confusion − Vigor), Mean ± SD ([2]; 6 weeks, 2 h): −8.8 ± 13.4 | Vigor, mean ± SD ([2]; 6 weeks, 2 h): 17.2 ± 9.8 | Tension, Mean of visit ([2]; 6 weeks): 2.3 | Total Mood Disturbance, Mean of visit ([2]; 6 weeks): −9.4 | Vigor, Mean of visit ([2]; 6 weeks): 18.0 | Tension, mean ± SD ([2]; Baseline visit, 0 h): 5.4 ± 2.2 | Total Mood Disturbance (Tension + Depression + Anger + Fatigue + Confusion − Vigor), Mean ± SD ([2]; Baseline visit, 0 h): −2.2 ± 10.5 | Vigor, mean ± SD ([2]; Baseline visit, 0 h): 19.2 ± 5.3 | Tension, mean ± SD ([2]; Baseline visit, 1 h): 5.6 ± 5.4 | Total Mood Disturbance (Tension + Depression + Anger + Fatigue + Confusion − Vigor), Mean ± SD ([2]; Baseline visit, 1 h): −2.6 ± 18.6 | Vigor, mean ± SD ([2]; Baseline visit, 1 h): 17.4 ± 6.5 | Tension, mean ± SD ([2]; Baseline visit, 2 h): 2.8 ± 1.3 | Total Mood Disturbance (Tension + Depression + Anger + Fatigue + Confusion − Vigor), Mean ± SD ([2]; Baseline visit, 2 h): −0.4 ± 16.1 | Vigor, mean ± SD ([2]; Baseline visit, 2 h): 13.2 ± 6.4 | Tension, Mean of visit ([2]; Baseline visit): 4.6 | Total Mood Disturbance, Mean of visit ([2]; Baseline visit): −1.7 | Vigor, Mean of visit ([2]; Baseline visit): 16.6 | Tension, Δ Baseline ([2]; 3 weeks): −39.1% | Total Mood Disturbance, Δ Baseline ([2]; 3 weeks): −282% | Vigor, Δ Baseline ([2]; 3 weeks): +10.2% | Vigor, Δ Baseline [2, 3]: 10.2% | Tension, Δ PLA ([2]; 3 weeks): −51.7% | Total Mood Disturbance, Δ PLA ([2]; 3 weeks): −166% | Vigor, Δ PLA ([2]; 3 weeks): +28.9% | Vigor, Δ PLA [2, 3]: 28.9% | Tension, Δ Baseline ([2]; 6 weeks): −50.0% | Total Mood Disturbance, Δ Baseline ([2]; 6 weeks): −453% | Vigor, Δ Baseline ([2]; 6 weeks): +8.4% | Vigor, Δ Baseline [2, 4]: 8.4% | Tension, Δ PLA ([2]; 6 weeks): −61.0% | Total Mood Disturbance, Δ PLA ([2]; 6 weeks): −189% | Vigor, Δ PLA ([2]; 6 weeks): +59.3% | Vigor, Δ PLA [2, 4]: 59.3% | worsening of total mood disturbance during continued gaming ([2]; after 3 and 6 weeks): an effect that was not observed in the paraxanthine group | total mood disturbance, effect in words ([2]; after 3 and 6 weeks, compared to baseline and to placebo): improved total mood disturbance | decrease of feelings of tension-anxiety compared to baseline ([2]; after 3 weeks): 39.1% | decrease of feelings of tension-anxiety compared to placebo ([2]; after 3 weeks): 51.7% | decrease of feelings of tension-anxiety compared to baseline ([2]; after 6 weeks): 50% | decrease of feelings of tension-anxiety compared to placebo ([2]; after 6 weeks): 61.0% | course of tension with duration of play ([2]; the longer the subject played): tension decreased in the paraxanthine group the longer the subject played

From patent publication US20220331327A1, “THE USE OF PARAXANTHINE TO IMPROVE PERFORMANCE IN VIDEO GAMERS” (priority 2021, published 2022)
